Measured values taken from ChEMBL document CHEMBL4304811, “Development of a Water-Soluble Indolylmaleimide Derivative IM-93 Showing Dual Inhibition of Ferroptosis and NETosis” (ACS Med Chem Lett, 2019).

How the values were obtained:
[1] = test system: Tyrosine-protein kinase ABL1 (Homo sapiens), P00519 [Q252H]; assay: Binding affinity to human phosphorylated ABL1 Q252H mutant expressed in mammalian expression system assessed as residual binding level at 10 uM by Kinomescan method relative to control
[2] = target: Bone morphogenetic protein receptor type-1A (Homo sapiens) (UniProt P36894); assay: Binding affinity to wild-type human partial length BMPR1A (Q214 to I532 residues) expressed in bacterial expression system assessed as residual binding level at 10 uM by Kinomescan method relative to control
Bone morphogenetic protein receptor type-1A (Homo sapiens), sequence (P36894 whole entry, the tested form may be a part): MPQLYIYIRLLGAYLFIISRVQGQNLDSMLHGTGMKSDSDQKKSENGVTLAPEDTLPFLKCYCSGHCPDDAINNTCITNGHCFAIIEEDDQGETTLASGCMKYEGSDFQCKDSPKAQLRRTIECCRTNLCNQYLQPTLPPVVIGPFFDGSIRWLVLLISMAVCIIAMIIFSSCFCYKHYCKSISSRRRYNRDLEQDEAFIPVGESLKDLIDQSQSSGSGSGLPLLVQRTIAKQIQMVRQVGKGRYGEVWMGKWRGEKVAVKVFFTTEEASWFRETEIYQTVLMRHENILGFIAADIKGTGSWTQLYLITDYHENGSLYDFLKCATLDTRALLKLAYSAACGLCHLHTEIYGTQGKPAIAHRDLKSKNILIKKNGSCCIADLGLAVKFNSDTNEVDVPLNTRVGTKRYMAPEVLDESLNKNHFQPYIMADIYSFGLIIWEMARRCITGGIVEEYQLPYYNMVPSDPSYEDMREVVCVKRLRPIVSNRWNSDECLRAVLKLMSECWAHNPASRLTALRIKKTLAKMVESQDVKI

[3] = target: Interleukin-1 receptor-associated kinase 3 (Homo sapiens) (UniProt Q9Y616); assay: Binding affinity to wild-type human partial length IRAK3 (V147 to E596 residues) expressed in bacterial expression system assessed as residual binding level at 10 uM by Kinomescan method relative to control
Interleukin-1 receptor-associated kinase 3 (Homo sapiens), sequence (Q9Y616 whole entry, the tested form may be a part): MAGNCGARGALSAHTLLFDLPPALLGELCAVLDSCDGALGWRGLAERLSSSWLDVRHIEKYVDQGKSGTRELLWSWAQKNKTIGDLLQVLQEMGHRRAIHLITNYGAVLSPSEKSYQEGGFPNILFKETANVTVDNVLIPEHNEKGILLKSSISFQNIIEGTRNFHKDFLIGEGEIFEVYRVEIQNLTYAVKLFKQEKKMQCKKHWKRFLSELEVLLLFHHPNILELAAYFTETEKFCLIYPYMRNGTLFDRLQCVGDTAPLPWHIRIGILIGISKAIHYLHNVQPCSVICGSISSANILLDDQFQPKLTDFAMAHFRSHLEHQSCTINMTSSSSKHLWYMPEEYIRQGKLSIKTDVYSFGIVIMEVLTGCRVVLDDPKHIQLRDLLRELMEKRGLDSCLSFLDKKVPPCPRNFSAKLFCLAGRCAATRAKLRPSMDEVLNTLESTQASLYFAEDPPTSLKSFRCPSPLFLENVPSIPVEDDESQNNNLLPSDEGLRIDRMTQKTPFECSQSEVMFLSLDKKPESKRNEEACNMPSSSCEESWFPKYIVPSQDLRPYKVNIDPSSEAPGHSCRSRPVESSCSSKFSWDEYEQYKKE

[4] = target: Interleukin-1 receptor-associated kinase 4 (Homo sapiens) (UniProt Q9NWZ3); assay: Binding affinity to wild-type human partial length IRAK4 (M1 to S460 residues) expressed in mammalian expression system assessed as residual binding level at 10 uM by Kinomescan method relative to control
[5] = target: RAF proto-oncogene serine/threonine-protein kinase (Homo sapiens) (UniProt P04049); assay: Binding affinity to wild-type human partial length RAF1 (I330 to T640 residues) expressed in bacterial expression system assessed as residual binding level at 10 uM by Kinomescan method relative to control
[6] = target: Mast/stem cell growth factor receptor Kit (Homo sapiens) (UniProt P10721); assay: Binding affinity to wild-type human partial length autoinhibited KIT (Y545 to D952 residues) expressed in mammalian expression system assessed as residual binding level at 10 uM by Kinomescan method relative to control
[7] = target: Mitogen-activated protein kinase kinase kinase kinase 1 (Homo sapiens) (UniProt Q92918); assay: Binding affinity to wild-type human full length HPK1 (M1 to R799 residues) expressed in bacterial expression system assessed as residual binding level at 10 uM by Kinomescan method relative to control
[8] = target: Receptor-interacting serine/threonine-protein kinase 1 (Homo sapiens) (UniProt Q13546); assay: Binding affinity to wild-type human partial length RIPK1 (M1 to K305 residues) expressed in bacterial expression system assessed as residual binding level at 10 uM by Kinomescan method relative to control
Receptor-interacting serine/threonine-protein kinase 1 (Homo sapiens), sequence (Q13546 whole entry, the tested form may be a part): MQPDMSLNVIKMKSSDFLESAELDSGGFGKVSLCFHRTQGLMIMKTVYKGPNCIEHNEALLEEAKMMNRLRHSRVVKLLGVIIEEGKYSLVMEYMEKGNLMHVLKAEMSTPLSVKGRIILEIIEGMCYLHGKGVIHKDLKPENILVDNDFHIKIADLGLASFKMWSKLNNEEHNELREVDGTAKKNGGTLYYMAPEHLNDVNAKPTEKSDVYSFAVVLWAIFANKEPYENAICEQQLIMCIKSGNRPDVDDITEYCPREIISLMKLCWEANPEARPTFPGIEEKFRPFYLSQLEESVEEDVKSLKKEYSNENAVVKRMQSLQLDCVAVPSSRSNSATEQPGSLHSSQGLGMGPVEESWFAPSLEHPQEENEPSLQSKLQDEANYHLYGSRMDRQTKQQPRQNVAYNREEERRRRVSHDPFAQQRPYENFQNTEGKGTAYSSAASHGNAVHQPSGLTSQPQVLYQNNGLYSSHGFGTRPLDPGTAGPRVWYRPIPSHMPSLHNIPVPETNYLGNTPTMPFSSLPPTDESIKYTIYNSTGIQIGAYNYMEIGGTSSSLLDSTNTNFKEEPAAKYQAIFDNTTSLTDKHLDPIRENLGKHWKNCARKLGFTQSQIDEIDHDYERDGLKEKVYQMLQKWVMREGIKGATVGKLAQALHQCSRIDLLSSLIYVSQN

[9] = target: Rhodopsin kinase GRK1 (Homo sapiens) (UniProt Q15835); assay: Binding affinity to wild-type human full length GRK1 (M1 to S563 residues) expressed in mammalian expression system assessed as residual binding level at 10 uM by Kinomescan method relative to control
Rhodopsin kinase GRK1 (Homo sapiens), sequence (Q15835 whole entry, the tested form may be a part): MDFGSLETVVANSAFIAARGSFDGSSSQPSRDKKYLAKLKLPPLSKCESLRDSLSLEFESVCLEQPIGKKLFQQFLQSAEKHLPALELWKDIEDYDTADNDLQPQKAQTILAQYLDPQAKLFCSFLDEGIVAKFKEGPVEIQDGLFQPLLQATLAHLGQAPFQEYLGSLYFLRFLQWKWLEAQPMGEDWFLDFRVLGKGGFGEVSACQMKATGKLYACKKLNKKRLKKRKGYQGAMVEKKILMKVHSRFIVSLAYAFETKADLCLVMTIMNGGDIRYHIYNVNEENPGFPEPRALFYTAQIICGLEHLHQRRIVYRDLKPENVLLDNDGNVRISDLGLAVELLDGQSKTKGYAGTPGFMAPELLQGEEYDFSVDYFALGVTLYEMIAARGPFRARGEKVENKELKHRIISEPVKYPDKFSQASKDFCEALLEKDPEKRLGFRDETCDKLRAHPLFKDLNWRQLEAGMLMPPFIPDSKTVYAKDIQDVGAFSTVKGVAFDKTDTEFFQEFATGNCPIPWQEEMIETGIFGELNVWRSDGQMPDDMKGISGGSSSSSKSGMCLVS

[10] = target: Insulin-like growth factor 1 receptor (Homo sapiens) (UniProt P08069); assay: Binding affinity to wild-type human partial length IGF1R (L972 to D1294 residues) expressed in bacterial expression system assessed as residual binding level at 10 uM by Kinomescan method relative to control
[11] = target: Calcium/calmodulin-dependent protein kinase type 1G (Homo sapiens) (UniProt Q96NX5); assay: Binding affinity to wild-type human partial length CAMK1G (M1 to A342 residues) expressed in bacterial expression system assessed as residual binding level at 10 uM by Kinomescan method relative to control
[12] = test system: Tyrosine-protein kinase ABL1 (Homo sapiens), P00519 [F317L]; assay: Binding affinity to human phosphorylated ABL1 F317L mutant (S229 to K512 residues) expressed in mammalian expression system assessed as residual binding level at 10 uM by Kinomescan method relative to control
[13] = target: Serine/threonine-protein kinase PLK3 (Homo sapiens) (UniProt Q9H4B4); assay: Binding affinity to wild-type human partial length PLK3 (A42 to L334 residues) expressed in mammalian expression system assessed as residual binding level at 10 uM by Kinomescan method relative to control
Serine/threonine-protein kinase PLK3 (Homo sapiens), sequence (Q9H4B4 whole entry, looked up, the tested form may be a part): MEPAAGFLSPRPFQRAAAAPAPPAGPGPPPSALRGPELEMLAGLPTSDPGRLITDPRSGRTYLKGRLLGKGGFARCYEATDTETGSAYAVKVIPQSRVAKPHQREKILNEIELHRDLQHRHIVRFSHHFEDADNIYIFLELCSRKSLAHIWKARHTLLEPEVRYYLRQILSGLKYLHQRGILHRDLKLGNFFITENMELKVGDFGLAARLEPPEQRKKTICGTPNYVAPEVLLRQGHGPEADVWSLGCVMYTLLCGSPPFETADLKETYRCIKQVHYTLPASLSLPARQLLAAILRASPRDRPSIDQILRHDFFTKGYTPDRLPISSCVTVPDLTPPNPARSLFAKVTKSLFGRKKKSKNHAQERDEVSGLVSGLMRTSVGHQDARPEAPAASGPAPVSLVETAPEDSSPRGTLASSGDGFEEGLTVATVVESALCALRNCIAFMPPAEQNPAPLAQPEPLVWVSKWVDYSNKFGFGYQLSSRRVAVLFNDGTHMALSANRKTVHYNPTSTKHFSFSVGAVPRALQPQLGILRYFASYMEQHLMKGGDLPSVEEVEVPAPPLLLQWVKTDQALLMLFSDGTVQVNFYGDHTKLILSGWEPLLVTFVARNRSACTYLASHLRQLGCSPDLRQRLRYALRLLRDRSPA

[14] = target: Ribosomal protein S6 kinase alpha-4 (Homo sapiens) (UniProt O75676); assay: Binding affinity to wild-type human partial length N-terminal RPS6KA4 kinase domain 1 expressed in bacterial expression system assessed as residual binding level at 10 uM by Kinomescan method relative to control
[15] = test system: Tyrosine-protein kinase ABL1 (Homo sapiens), P00519 [E255K]; assay: Binding affinity to human phosphorylated ABL1 E255K mutant (S229 to K512 residues) expressed in mammalian expression system assessed as residual binding level at 10 uM by Kinomescan method relative to control
[16] = target: Death-associated protein kinase 3 (Homo sapiens) (UniProt O43293); assay: Binding affinity to wild-type human partial length DAPK3 (M1 to A277 residues) expressed in bacterial expression system assessed as residual binding level at 10 uM by Kinomescan method relative to control
Death-associated protein kinase 3 (Homo sapiens), sequence (O43293 whole entry, looked up, the tested form may be a part): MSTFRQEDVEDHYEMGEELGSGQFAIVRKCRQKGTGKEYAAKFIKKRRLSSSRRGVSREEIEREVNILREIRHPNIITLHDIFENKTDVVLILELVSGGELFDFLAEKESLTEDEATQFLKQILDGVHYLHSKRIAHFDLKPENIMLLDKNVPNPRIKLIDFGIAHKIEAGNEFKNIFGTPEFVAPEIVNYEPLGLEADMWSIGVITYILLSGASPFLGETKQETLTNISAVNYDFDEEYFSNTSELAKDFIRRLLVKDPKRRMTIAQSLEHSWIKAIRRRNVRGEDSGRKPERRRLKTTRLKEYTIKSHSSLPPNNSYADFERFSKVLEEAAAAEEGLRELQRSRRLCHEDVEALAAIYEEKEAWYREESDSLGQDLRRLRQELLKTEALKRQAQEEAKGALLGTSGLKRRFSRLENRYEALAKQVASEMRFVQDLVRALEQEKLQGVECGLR

[17] = target: LIM domain kinase 2 (Homo sapiens) (UniProt P53671); assay: Binding affinity to wild-type human full length LIMK2 (M1 to P638 residues) expressed in bacterial expression system assessed as residual binding level at 10 uM by Kinomescan method relative to control
[18] = target: Serine/threonine-protein kinase PknB (Mycobacterium tuberculosis) (UniProt P9WI81); assay: Binding affinity to wild-type Mycobacterium tuberculosis partial length PKNB (M1 to G279 residues) expressed in mammalian expression system assessed as residual binding level at 10 uM by Kinomescan method relative to control
Serine/threonine-protein kinase PknB (Mycobacterium tuberculosis), sequence (P9WI81 whole entry, the tested form may be a part): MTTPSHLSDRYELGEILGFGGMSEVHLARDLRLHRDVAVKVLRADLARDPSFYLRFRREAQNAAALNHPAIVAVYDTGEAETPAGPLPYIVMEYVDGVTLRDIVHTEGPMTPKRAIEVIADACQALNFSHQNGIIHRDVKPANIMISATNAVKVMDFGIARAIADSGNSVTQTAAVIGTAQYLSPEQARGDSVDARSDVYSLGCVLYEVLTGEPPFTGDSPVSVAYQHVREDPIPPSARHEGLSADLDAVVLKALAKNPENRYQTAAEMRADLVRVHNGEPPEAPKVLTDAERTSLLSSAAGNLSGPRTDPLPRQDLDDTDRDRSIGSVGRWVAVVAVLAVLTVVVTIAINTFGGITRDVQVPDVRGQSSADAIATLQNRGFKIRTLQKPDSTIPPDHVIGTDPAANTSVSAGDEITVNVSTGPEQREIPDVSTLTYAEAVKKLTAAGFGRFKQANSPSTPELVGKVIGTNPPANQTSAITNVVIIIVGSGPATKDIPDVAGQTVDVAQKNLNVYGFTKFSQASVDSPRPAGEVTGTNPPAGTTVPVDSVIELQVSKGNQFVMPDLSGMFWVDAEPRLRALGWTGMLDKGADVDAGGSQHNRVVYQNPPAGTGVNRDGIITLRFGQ

[19] = target: Serine/threonine-protein kinase Sgk1 (Homo sapiens) (UniProt O00141); assay: Binding affinity to wild-type human partial length SGK (I60 to L431 residues) expressed in mammalian expression system assessed as residual binding level at 10 uM by Kinomescan method relative to control
Serine/threonine-protein kinase Sgk1 (Homo sapiens), sequence (O00141 whole entry, the tested form may be a part): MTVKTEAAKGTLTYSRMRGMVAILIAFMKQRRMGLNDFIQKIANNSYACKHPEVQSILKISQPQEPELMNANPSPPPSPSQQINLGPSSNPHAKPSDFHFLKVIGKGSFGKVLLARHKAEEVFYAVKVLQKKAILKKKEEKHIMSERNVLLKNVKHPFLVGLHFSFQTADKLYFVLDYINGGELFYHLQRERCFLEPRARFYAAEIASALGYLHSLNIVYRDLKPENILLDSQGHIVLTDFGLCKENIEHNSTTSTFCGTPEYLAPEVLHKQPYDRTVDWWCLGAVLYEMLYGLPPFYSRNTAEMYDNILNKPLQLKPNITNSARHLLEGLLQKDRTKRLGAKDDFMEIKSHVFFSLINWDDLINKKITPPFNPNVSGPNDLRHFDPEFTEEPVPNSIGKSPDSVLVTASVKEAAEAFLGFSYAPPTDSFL

[20] = test system: Tyrosine-protein kinase ABL1 (Homo sapiens), P00519 [H396P]; assay: Binding affinity to human non-phosphorylated ABL1 H396P mutant (S229 to K512 residues) expressed in mammalian expression system assessed as residual binding level at 10 uM by Kinomescan method relative to control
[21] = target: Serine/threonine-protein kinase Nek2 (Homo sapiens) (UniProt P51955); assay: Binding affinity to wild-type human partial length NEK2 (M1 to K309 residues) expressed in bacterial expression system assessed as residual binding level at 10 uM by Kinomescan method relative to control
Serine/threonine-protein kinase Nek2 (Homo sapiens), sequence (P51955 whole entry, the tested form may be a part, canonical isoform): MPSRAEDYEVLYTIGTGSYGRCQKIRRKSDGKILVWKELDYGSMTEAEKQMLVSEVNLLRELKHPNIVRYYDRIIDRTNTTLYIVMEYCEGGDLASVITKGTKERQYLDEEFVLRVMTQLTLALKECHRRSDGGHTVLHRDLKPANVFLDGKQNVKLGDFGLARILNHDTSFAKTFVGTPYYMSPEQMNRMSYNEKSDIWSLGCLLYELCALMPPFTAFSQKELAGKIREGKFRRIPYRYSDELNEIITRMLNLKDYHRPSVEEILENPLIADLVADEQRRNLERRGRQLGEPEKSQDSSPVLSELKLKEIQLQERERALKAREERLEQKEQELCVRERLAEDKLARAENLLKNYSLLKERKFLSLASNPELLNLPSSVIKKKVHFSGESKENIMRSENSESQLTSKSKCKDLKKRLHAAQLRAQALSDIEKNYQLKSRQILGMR

[22] = test system: Phosphatidylinositol 4,5-bisphosphate 3-kinase catalytic subunit alpha isoform (Homo sapiens), P42336 [I800L]; assay: Binding affinity to human partial length PIK3CA I800L mutant (R108 to N1068 residues) expressed in mammalian expression system assessed as residual binding level at 10 uM by Kinomescan method relative to control
[23] = target: Serine/threonine-protein kinase PAK 1 (Homo sapiens) (UniProt Q13153); assay: Binding affinity to wild-type human partial length PAK1 (S149 to H545 residues) expressed in bacterial expression system assessed as residual binding level at 10 uM by Kinomescan method relative to control
[24] = target: Ribosomal protein S6 kinase alpha-1 (Homo sapiens) (UniProt Q15418); assay: Binding affinity to wild-type human partial length N-terminal RSK1 Kinase domain 1 (M1 to E388 residues) expressed in bacterial expression system assessed as residual binding level at 10 uM by Kinomescan method relative to control

SMILES: CC(C)N1C(=O)C(NCCCN(C)C)=C(c2cn(C)c3ccccc23)C1=O.Cl
- Activity [1]: 84%
- Activity [2]: 100%
- Activity [3]: 85%
- Activity [4]: 74%
- Activity [5]: 100%
- Activity [6]: 66%
- Activity [7]: 100%
- Activity [8]: 96%
- Activity [9]: 96%
- Activity [10]: 80%
- Activity [11]: 95%
- Activity [12]: 83%
- Activity [13]: 100%
- Activity [14]: 100%
- Activity [15]: 89%
- Activity [16]: 98%
- Activity [17]: 93%
- Activity [18]: 91%
- Activity [19]: 95%
- Activity [20]: 90%
- Activity [21]: 94%
- Activity [22]: 92%
- Activity [23]: 92%
- Activity [24]: 98%
